This is an account of results in article PMC6443933, “Antagonizing Retinoic Acid-Related-Orphan Receptor Gamma Activity Blocks the T Helper 17/Interleukin-17 Pathway Leading to Attenuated Pro-inflammatory Human Keratinocyte and Skin Responses” (Frontiers in Immunology, 2019).

In one assay the target is T1, RORγt-LBD (Homo sapiens, UniProt P51449).
T1 construct: luciferase reporter gene transcription is driven by the GAL4-RORγt-LBD fusion construct; expressed in transfected cells; host or cells: Jurkat cells stably carrying pGL4.35 (9 x GAL4 sites, luciferase)
T1 sequence (P51449 269-508 limits assumed): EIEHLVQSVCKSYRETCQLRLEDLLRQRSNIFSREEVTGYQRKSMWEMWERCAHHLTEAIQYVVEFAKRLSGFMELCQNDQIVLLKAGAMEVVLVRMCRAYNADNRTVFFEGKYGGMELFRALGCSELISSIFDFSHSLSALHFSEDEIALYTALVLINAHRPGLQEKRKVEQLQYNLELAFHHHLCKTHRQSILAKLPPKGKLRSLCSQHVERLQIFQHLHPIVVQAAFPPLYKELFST
Nature of the assay: RORγt-LBD/GAL4 transactivation reporter gene assay in Jurkat T-cells. It counts as cell-based. Here is the method:
Selectivity against other ROR family members was assessed in a GAL4 reporter gene assay as previously described ([44]). Briefly, Jurkat cells stably expressing the pGL4.35 plasmid (Promega) containing nine GAL4 binding sites inducing the transcription of the luciferase reporter gene were transiently transfected with the human RORα, RORβ or RORγt-LBD/GAL4-DBD constructs. After 24 h post-transfection, cells were incubated with Cpd A for an additional 24 h before luciferase activity was determined using an EnVision Multilabel Plate Reader (Perkin Elmer).

In assay [1] the test system is human Th17 cells (total CD4+ T-cells). The assay is described as follows: RORγt target gene expression in Th17 cells by qRT-PCR. The following applies: Th17 polarization 72 h, concentration-dependent. Format: cell-based. How it is done:
Total, naive and memory CD4^+ T cells were isolated from Peripheral blood mononuclear cells (PBMCs) from healthy volunteers by density gradient centrifugation using Ficoll Paque (GE). Total, naive or memory CD4^+ T-cells were prepared by immunomagnetic separation using the respective CD4^+ T-cell enrichment kits resulting in untouched highly purified subsets (EasySep™, Stem Cell). Purity was assessed by flow cytometry and was between 95 and 98% for the total CD4^+ T-cells. The purity of naive (CD45RA^+CD45RO^−) and memory (CD45RA^−CD45RO^+) CD4^+T-cells ranged between 95 and 98%, respectively. For T-cell stimulation experiments, cells were treated as previously published ([44]). Briefly, T-cells were stimulated with plate-bound monoclonal antibodies against CD3 (1 μg/ml, clone OKT-3, BioXcell) and CD28 (1 μg/ml, clone CD28.2, BioLegend). For Th17 polarization assays, IL-6 (20 ng/ml), TGF-β1 (5 ng/ml), IL-1β (10 ng/ml), and IL-23 (10 ng/ml) were added. For Th1 polarization assays, IL-12 (10 ng/ml) and anti-IL-4 antibody (5 μg/ml), for Th2 polarizations, IL-4 (10 ng/ml) and anti-IFN-γ antibody (5 μg/ml) were added. For Th0 polarization assays, cells were only stimulated with CD3 and CD28 antibodies. Supernatants were collected after 3 or 7 days of incubation for total or naive/memory CD4^+ T-cell polarizations, respectively. Cytokine concentrations were quantified by ELISA according to the manufacturer's instructions (eBioscience or BioLegend).
Total RNA from human Th17 cells (6 × 10^5 cells), RORγt-RORE HUT78 cells (4 × 10^5 cells) and HaCaT cells (6 × 10^4 cells) was extracted using RNeasy kit including a DNAse I digestion step according to the manufacturer‘s protocol (Qiagen). Frozen skin biopsies (8 mm punches) were resuspended in RLT buffer (Qiagen) containing 1% β-mercaptoethanol and homogenized using a Precellys-Cryolys device (Bertin Instruments) according to the manufacturer's instructions. cDNAs were prepared with the High Capacity cDNA Reverse Transcription Kit (Applied Biosystems). Quantitative RT-PCR analysis was performed using a TaqManViiA7 (Applied Biosystems). All runs were accompanied by the internal control gene human β-glucoronidase (Gus) (431088E). The samples were run in triplicate or in hexaplicate and normalized to Gus using the ΔΔCt method to provide arbitrary units representing relative expression levels. The following Taqman probes were used for RT-PCR (Thermo Scientific): RORC (Hs01076112_m1), IL17A (Hs00936345_m1), IL22 (Hs01574154_m1), IL26 (Hs00218189_m1), IL23R (Hs00332759_m1), CCR6 (Hs00218189_m1), NFKBIZ (Hs00355476_m), DEFB4A (Hs00823638_m1), IL36G (Hs00219742_m1), and CCL20 (Hs00355476_m1).

Assay [2] concerns skin-resident immunocompetent cells in human skin biopsies. Nature of the assay: Ex vivo full-thickness human skin biopsy culture with Th17-inducing cocktail. How it is done:
Full-thickness skin punch biopsies (8 mm diameter) were taken from surgical discards. Briefly, subcutaneous fat was removed from the skin ranging in size between 150 and 200 cm^2 and 8 mm punches were obtained. Samples were incubated in IMDM medium supplemented with Glutamax, 10% FCS, 1% non-essential amino acids, 1 mM Sodium pyruvate, Penicillin/Streptomycin and Amphotericin B (2.5 μg/ml). Incubations were done in the presence of various concentrations of Cpd A or DMSO vehicle control together with a Th17-inducing cocktail consisting of IL-6 (20 ng/ml), TGF-β1 (5 ng/ml), IL-1β (10 ng/ml), IL-23 (10 ng/ml), anti-IL-4/IFNγ (5 μg/ml), and anti-CD3/CD28 antibodies (1 μg/ml). On day 4, supernatants were harvested and analyzed for IL-17 cytokine expression, whereas skin punch biopsies were snap frozen, stored at −80°C and further processed for qRT-PCR analysis.
Total RNA from human Th17 cells (6 × 10^5 cells), RORγt-RORE HUT78 cells (4 × 10^5 cells) and HaCaT cells (6 × 10^4 cells) was extracted using RNeasy kit including a DNAse I digestion step according to the manufacturer‘s protocol (Qiagen). […] Quantitative RT-PCR analysis was performed using a TaqManViiA7 (Applied Biosystems). […]

For assay [3], the system named is CD4+ CD25 high gated PBMCs. The assay is described as follows: FoxP3 expression in CD4+ CD25 high T-cells under Treg inducing conditions. Format: cell-based, human. The following applies: 96 h Treg inducing conditions, vs DMSO. How it is done: PBMCs from freshly drawn heparinized blood originating from healthy volunteers were isolated by density gradient centrifugation using Ficoll Paque (GE). PBMCs (1 × 10^5/well) were incubated for 96 h in the presence of DMSO or Cpd A (1 μM) together with anti-CD3 (3 ng/ml, clone OKT-3, BioXcell), anti-CD28 (30 ng/ml, clone CD28.2, BioLegend), TGF-β1 (0.2 ng/ml, Biolegend), IL-2 (15 ng/ml, Biolegend), anti-IFN-γ antibody (5 μg/ml, Biolegend), and anti-IL-4 (5 μg/ml, Biolegend). Cells were prepared for CD4/CD25 surface staining, followed by intracellular FoxP3 staining.
For FoxP3 detection within the CD4^+ CD25 high T-cells, surface staining was performed for 20 min with FITC labeled CD4 antibody and anti-CD25 BV421 antibody (BD Bioscience). After surface staining, the cells were washed, fixed and permeabilized according to the manufacturer's instructions (eBioscience) prior to intracellular staining with APC labeled FoxP3 antibody (eBioscience). Data were acquired on a LSR Fortessa (BD Bioscience) and analyzed using FlowJo software (Tree Star). FoxP3 expression was determined in gated CD4^+ CD25 high T-cells that were treated with DMSO or with Cpd A.

For the molecule `Cc1ccc(C(=O)Nc2cn3ccnc3c(CN3CCN(c4noc(C(C)(C)C)n4)[C@@H](C)C3)c2C)cn1` [Cpd A, (S)-N-(8-((4-(5-(tert-butyl)-1,2,4-oxadiazol-3-yl)-3-methylpiperazin-1-yl)methyl)-7-methylimidazo[1,2-a]pyridin-6-yl)-6-methylnicotinamide], on RORγt-LBD, the “inhibition of GAL4 promoter activity” value is given as “complete inhibition”. The IC50 at RORγt-LBD (luciferase, 24 h with compound) came out at 95 nM. Moreover, in assay [1], the CCR6 gene expression entry is “significantly attenuated”, the IL17A gene expression entry was “significantly attenuated”, the IL17F gene expression entry is reported as “significantly attenuated” and the IL22 gene expression result is reported as “significantly attenuated”. In assay [1], the IL23R gene expression result is given as “significantly attenuated” and the IL26 gene expression result is “significantly attenuated”. In assay [2], the “h-BD2 (DEFB4A) gene expression in skin punches” value is “significantly down-regulated”. In assay [2] (ex vivo skin punches, various concentrations), the “IL-17A secretion by skin-resident immunocompetent cells” value is “concentration-dependent inhibition”. In assay [3], the FoxP3 expression result is on record as “did not result in altered FoxP3 expression”.
